Assay results: patent US11980616B2, “Treating liver disease by selectively eliminating senescent cells” (Buck Institute for Research on Aging, priority 2014, dated 2024)

Experiments:
[1] = system: senescent foreskin fibroblasts (Sen(IR)HCA2); test: Cell count survival assay, irradiation-induced senescent HCA2; type: cell-based; settings: 0, 2.5, 10 μM for 9 days
Procedure: Foreskin fibroblast cell lines HCA2 and BJ, lung fibroblast cell line IMR90, and mouse embryonic fibroblasts were seeded in six-well plates and induced to senesce with 10 Gy of ionizing radiation (IR) or a 24 hr treatment with doxorubicin (Doxo). Senescent phenotype was allowed to develop for at least 7 days, at which point a cell count was made to determine the baseline number of cells. Nutlin-3a treatment was then initiated for a period of at least 9 days. Media alone or media with drug as appropriate was refreshed at least every three days. At the end of the assay time period, cells are counted. Each condition was seeded in three plate wells and counted independently. Initial cell count serves as a control to determine the induction of senescence, as compared to the last day count without nutlin treatment. Initial non-senescent cell count serves as a proxy to determine Nutlin-3a toxicity.
Foreskin fibroblast cell lines HCA2 and BJ, lung fibroblast cell line IMR90, and mouse embryonic fibroblasts were exposed to 10 Gy of ionizing radiation (IR) to induce senescence. […] Percent survival was calculated as [cell count on day 9 of Nutlin-3a treatment/initial cell count on first day of Nutlin-3a treatment].

[2] = system: non-senescent pre-adipocytes (Non Sen Pread); test: Cell count toxicity assay, non-senescent pre-adipocytes; type: cell-based; settings: 0, 2.5, 10 μM, 11 days
Procedure: Non-senescent aortic endothelial (Endo Aort) cells and pre-adipocytes (Pread) were also treated with varying concentrations (0, 2.5 μM, and 10 μM) of Nutlin-3a for a period of 11 days to assess Nutlin-3a toxicity, as described above. Cell counts were taken at the start at Day 0 (NS start) and at the end of Nutlin-3a treatment (NS 0). The difference between counts of cells not treated with Nutlin-3a on day 11 (NS 0) and cell counts from NS start reflects the cell growth over the indicated time period. […] Decrease in apparent survival between NS 0 and NS 2.5 and between NS 0 and NS 10 reflects a decrease in cell growth.

[3] = system: 3MR or INK-ATTAC mice exposed to cigarette smoke; test: Chronic cigarette smoke exposure model (COPD); type: in vivo, mouse; settings: after 2 months of cigarette smoke exposure; vs untreated controls
Procedure: In a second animal model for pulmonary diseases (e.g., COPD), mice were exposed to cigarette smoke. The effect of a senolytic agent on the mice exposed to smoke is assessed by senescent cell clearance, lung function, and histopathology.
Six week-old 3MR (n=35) or INK-ATTAC (n=35) mice were chronically exposed to cigarette smoke generated from a Teague TE-10 system, an automatically-controlled cigarette smoking machine that produces a combination of side-stream and mainstream cigarette smoke in a chamber, which is transported to a collecting and mixing chamber where varying amounts of air is mixed with the smoke mixture. The COPD protocol was adapted from the COPD core facility at Johns Hopkins University (at Internet site web.jhu.edu/Biswal/exposure_core/copd.html#Cigarette_Smoke) (Rangasamy et al., 2004, J. Clin. Invest. 114:1248-1259; Yao et al., 2012, J. Clin. Invest. 122:2032-2045). Mice received a total of 6 hours of cigarette smoke exposure per day, 5 days a week for 6 months. Each lighted cigarette (3R4F research cigarettes containing 10.9 mg of total particulate matter (TPM), 9.4 mg of tar, and 0.726 mg of nicotine, and 11.9 mg carbon monoxide per cigarette [University of Kentucky, Lexington, KY]) was puffed for 2 seconds and once every minute for a total of 8 puffs, with the flow rate of 1.05 L/min, to provide a standard puff of 35 cm^3. The smoke machine was adjusted to produce a mixture of side stream smoke (89%) and mainstream smoke (11%) by smoldering 2 cigarettes at one time. The smoke chamber atmosphere was monitored for total suspended particulates (80-120 mg/m^3) and carbon monoxide (350 ppm). Beginning at day 7, (10) INK-ATTAC and (10) 3MR mice were treated with AP20187 (3× per week) or gancyclovir (5 consecutive days of treatment followed by 16 days off drug, repeated until the end of the experiment), respectively. An equal number of mice received the corresponding vehicle. The remaining […] (15 INK-ATTAC and 15 3MR) were evenly split with 5 of each genetically modified strain placed into three different treatment groups. One group (n=10) received Nutlin-3A (25 mg/kg dissolved in 10% DMSO/3% Tween-20 in PBS, treated 14 days consecutively followed by 14 days off drug, repeated until the end of the experiment). […]
After two months of cigarette smoke exposure, lung function was assessed by monitoring oxygen saturation using the MouseSTAT PhysioSuite pulse oximeter (Kent Scientific). […] Mice were monitored for 30 seconds and the average peripheral capillary oxygen saturation (SpO2) measurement over this duration was calculated.

[4] = system: p16-3MR mice treated with paclitaxel; test: Voluntary exercise (wheel counts) after paclitaxel in p16-3MR mice; type: in vivo, mouse; settings: ABT-263 100 mg/kg i.p. daily 7 days; ganciclovir 25 mg/kg i.p. daily 3 days
Procedure: The capability of a senolytic agent, such as ABT-263, to reduce chemotherapy related side effects, such as fatigue, was examined in p16-3MR transgenic mice. In addition to doxorubicin, paclitaxel also induces cellular senescence when administered to animals. See Example 2 for a description of the p16-3MR transgenic mouse model.
In this experiment, paclitaxel was administered to groups of p16-3mr mice (n=4) three times, every two days. Two days after the third dose of paclitaxel, ganciclovir was administered daily for three days (days 1, 2, and 3) intraperitoneally at 25 mg/kg. ABT-263 (100 mg/kg) was administered intraperitoneally daily for seven days after paclitaxel administration. Two days after the last dose of ABT-263, all groups of animals were housed in metabolic cages (promethion, sable systems international, Las Vegas, NV) to monitor voluntary exercise as determined by wheel counts. Data were collected and analyzed two days later. Clearance of senescent cells by ABT-263 and ganciclovir restored approximately 70% of wheel count reduction caused by chemotherapy treatment.

Row | SMILES | Percent survival [1] | Proliferation (percent growth) [2] | Toxicity (cell number vs starting level) [2] | SpO2 levels [3] | Restoration of wheel count reduction caused by chemotherapy [4]
1 | COc1ccc(C2=N[C@@H](c3ccc(Cl)cc3)[C@@H](c3ccc(Cl)cc3)N2C(=O)N2CCNC(=O)C2)c(OC(C)C)c1 [Nutlin-3a] | reduced cell survival | reduces proliferation | non-toxic | statistically significant increases | 
2 | Nc1nc(O)c2ncn(COC(CO)CO)c2n1 [ganciclovir] |  |  |  | statistically significant increases | approximately 70%
